Assay results: publication PMC9163831 (Frontiers in Microbiology, 2022)

Experiments:
[1] = system: human lung epithelial cells (A549); set-up: method as in Zhang et al., [2019]; details: ref Zhang et al., [2019]; cited from earlier work
[2] = set-up: method as in Xiao et al., [2018]; details: IBG supplementation; ref Xiao et al., [2018]; cited from earlier work
erythrocytes in mice = system: erythrocytes in mice; set-up: method as in Zhang et al., [2019]; details: ref Zhang et al., [2019]; cited from earlier work
Salmonella S226 (mcr-1) = test: Antimicrobial combination susceptibility testing (MIC, MBC, checkerboard FICI) in MH broth; assay type: cell-based, S. typhimurium; details: for MIC (in combination): colistin + IBG checkerboard
Description: (§1) The susceptibility of the selected Salmonella isolates and quality control isolate (ATCC 25922) to colistin and IBG in MH broth was investigated in accordance with the methods and quality control requirements recommended by the Clinical and Laboratory Standards Institute. Minimal inhibitory concentration (MIC) was the lowest concentration of colistin where visible bacterial growth was inhibited after 24 h of incubation. E. coli ATCC 25922 was used as the quality control strain to ensure the credibility of MICs tested. Susceptibility testing was performed in triplicate and germ-free controls (blank medium). The minimum bactericidal concentration (MBC) in MH broth was measured according to a previous report (Lei et al., [2017]). The synergistic activity between colistin and IBG, and the fractional inhibitory concentration indices (FICI) were measured by checkerboard assays, based on the MIC of each drug (MacNair et al., [2018]). In brief, 50 μL of broth was added to each well, and 50 μL of the indicated concentration of colistin was added into the first well of each line. This process was followed by multiple proportion dilution. Next, 50 μL of samples of different IBG concentrations was added to the dilution medium, and 100 μL of inoculum with a cell density of ~1 × 10^6 colony-forming units (CFU)/mL was added to each well. The FICI was calculated follows:
(§2) (1) FICI=MIC(Colistinincombination)/MIC(Colistin)+MIC(IBGincombination)/MIC(IBG).

Salmonella ATCC14028 = test: as above; assay type: cell-based, S. typhimurium; details: for MBC / MIC: alone; for MIC (in combination): colistin + IBG checkerboard
Description: as §1, §2

[3] = system: Salmonella 26FS14 (mcr-1); test: as above; assay type: cell-based, S. typhimurium; details: for MIC (in combination): colistin + IBG checkerboard
Description: as §1, §2

[4] = system: Salmonella 26FS26 (mcr-1); test: as above; assay type: cell-based, S. typhimurium; details: for MIC (in combination): colistin + IBG checkerboard
Description: as §1, §2

Salmonella S235 (mcr-1) = test: as above; assay type: cell-based, S. typhimurium; details: for MIC (in combination): colistin + IBG checkerboard
Description: as §1, §2

[5] = Pharmacokinetics of colistin in ileum contents, mcr-1-positive Salmonella infection model; assay type: in vivo, broilers; details: for AUC0-24h (intestinal colistin) / Cmax (peak intestinal colistin concentration) / T>MIC: infected broiler
Description: After 7-day acclimation, 200 infected broilers were randomly divided into five groups (n = 40/group). Pharmacokinetic analysis of colistin (2, 4, 8, and 16 mg/kg) alone and in combination (4 mg/kg colistin, 32 mg/kg IBG) was performed in mcr-1-positive Salmonella infection broilers following oral gavage. At 0.25, 0.5, 0.75, 1, 2, 4, 6, 8, 12, and 24 h after oral administration, four broilers per group were humanely killed and ileum contents (0.5 g) were sampled. The concentration of colistin in each ileum content sample was determined by validated liquid chromatography-tandem mass spectrometry (LC-MS/MS), with minor modifications. Briefly, intestinal contents (0.5 g) were extracted with 10 mL of 10% trichloroacetic acid and 10 mL of 4% lead acetate, homogenized for 1 min, ultrasonicated (30 min) and centrifuged (10,000 g, 10 min) to obtain supernatant. Thereafter, 2 mL of extraction solution was applied to HLB SPE cartridges, which were prewashed with 3 mL of methanol and 3 mL of water. The cartridges were then rinsed with 3 mL of 4% lead acetate. Afterward, the colistin was eluted with 6 mL of 20% methanol. The elute was evaporated to dryness under a gentle N2 stream at 40°C and the residue was dissolved in 0.5 mL of 0.1% formic acid for concentration analysis. The drug concentrations in intestinal contents were determined using HPLC-MS/MS. The calibration range was 0.25–5 μg/g. The intraday and interday precision levels varied from 2.1 to 9.8% and from 4.5 to 7.0%, respectively. The limit of detection (LOD) and limit of quantification (LOQ) were 0.10 and 0.25 μg/g, respectively.
The values of colistin intestinal content PK parameters in single-dose PK studies were obtained by non-compartmental analysis in Phoenix WinNonlin® 8.2 (Certara, L.P., Princeton, NJ, USA).

[6] = system: mcr-1-positive Salmonella; test: In vitro time-killing curves; assay type: cell-based
Description: After MIC determination, different concentrations of colistin were prepared in broth ranging from different doses before bacterial inoculation (10^6 CFU/mL). Growth was checked with control. The tubes containing bacteria and different concentrations of colistin and IBG were incubated at 37°C. The bacterial count (CFU/mL) was determined for each tube after 0, 1, 2, 4, 6, 8, 12, and 24 h of incubation. In brief, 100 μL of culture was obtained for each time point, and serially diluted, and the colonies were counted the next morning. Each concentration test was performed in triplicate.

[7] = system: mcr-1-positive Salmonella; test: Pharmacodynamics of colistin combined with IBG in an intestinal infection model; assay type: in vivo, broilers
Description: Broilers were inoculated by oral gavage with 1 mL of mcr-1-positive Salmonella culture containing […]. Necropsies of broilers that had died from infection and of euthanized animals were investigated, and the ileum content samples of broilers were taken as previously described (Addwebi et al., [2014]; Wang et al., [2020]). DNA was extracted from ileum content samples using a fecal DNA extraction kit (G-Clone, Beijing, China) in accordance with the manufacturer's instructions.
Pharmacodynamic analysis of combined colistin and IBG treatment in mcr-1-positive Salmonella infection broilers was performed at 3 h after administration of the inoculum. Afterward, 32 mg/kg of IBG was combined with 2, 4, 8, or 16 mg/kg of colistin, and colistin and IBG were also tested alone at 2, 4, 8, and 16 mg/kg (n = 4 for each group). The broilers were sacrificed after 24 h of therapy, and the intestinal content samples were aseptically removed and homogenized for CFU determination. Untreated control broilers were sacrificed before colistin treatment and at 24 h after treatment.

[8] = system: mcr-1-positive Salmonella; test: PK/PD analysis, inhibitory effect Imax model; assay type: in vivo, broilers
Description: PK/PD analysis was conducted using the inhibitory effect Imax model (Riviere and Toutain, [2011]). This model is described by the following equation: […]
where E is the antibacterial effect, measured as change in log10CFU/g after 24 h of treatment, compared with the initial log10CFU/g in the untreated control broiler; E0 is the difference in the number of bacteria (log10CFU/g) in control samples between time 0 and 24 h. Imax is the maximum antimicrobial growth inhibition determined as the change in log10CFU/g after 24 h treatment with colistin combined with IBG. X is the predictive variable (expressed as AUC0−24h/MIC, Cmax/MIC, and %T>MIC), and IC50 is the X value producing 50% of the maximum antibacterial effect. The relationship between efficacy and the three PK/PD indices was determined by non-linear least-squares regression in a Phoenix WinNonlin® PD model. The coefficient of determination (R^2) was used to estimate the variance caused by regression for each PK/PD index.

[9] = system: mcr-1-positive Salmonella; test: MIC of colistin with and without IBG; assay type: cell-based
Description: as §1, with “well.” for “well. The FICI was calculated follows:”

[10] = set-up: method as in Mead et al. ([2021]); details: oral administration, 75,000 I.U./kg, chicken; ref Mead et al. ([2021]); cited from earlier work
[11] = system: mcr-1-positive Salmonella; test: Dose determination from AUC/MIC targets; assay type: in vivo, broilers; details: combination: with 32 mg/kg of IBG
From the text: The potential optimal dosage can be calculated using the following equation (Toutain et al., [2002], [2007]):
(3) Dose=(AUC/MIC)·MIC·CL/fu·F,
where dose (per day) is at steady state; CL is the clearance per day; AUC/MIC is the targeted endpoint for optimal efficacy in hours; MIC is the target pathogen; F is the bioavailability factor (from 0 to 1), and fu is the free fraction of the drug (from 0 to 1). In this study, fu = 1.

[12] = single gavage 16 mg/kg colistin

## CC(C)Oc1ccc(/C=N/NC(=N)N/N=C/c2ccc(OC(C)C)cc2)cc1 [IBG, isopropoxy benzene guanidine]
[1]
  Cytotoxicity IC50: 28 µg/mL
[2]
  Adverse reactions in broilers: without adverse reactions
  Average daily gain of broilers: improved
  Diarrhea rate of broilers: reduced
Erythrocytes in mice
  HC50: > 400 µg/mL
Salmonella S226 (mcr-1)
  MIC (in combination): 16 µg/mL
Salmonella ATCC14028
  MBC: >512 µg/mL
  MIC: >512 µg/mL
  MIC (in combination): 4 µg/mL
[3]
  MIC (in combination): 8 µg/mL
[4]
  MIC (in combination): 16 µg/mL
Salmonella S235 (mcr-1)
  MIC (in combination): 16 µg/mL

## Colistin sulfate
[5]; doses <16 mg/kg, after gavage
  Colistin in ileum samples after 4 h: no colistin was detectable
[5]; single gavage 2 mg/kg colistin
  AUC0-24h (intestinal colistin): 31.58 µg·h/mL
  Cmax (peak intestinal colistin concentration): 13.74 µg/mL
  T>MIC: 15.11%
[5]; single gavage 4 mg/kg colistin
  AUC0-24h (intestinal colistin): 43.79 µg·h/mL
  Cmax (peak intestinal colistin concentration): 34.37 µg/mL
  T>MIC: 16.48%
[5]; single gavage 8 mg/kg colistin
  AUC0-24h (intestinal colistin): 191.81 µg·h/mL
  Cmax (peak intestinal colistin concentration): 75.92 µg/mL
  T>MIC: 16.62%
[5]; [12]
  AUC0-24h (intestinal colistin): 505.29 µg·h/mL
  Cmax (peak intestinal colistin concentration): 151.15 µg/mL
  T>MIC: 99.98%
[6]; colistin at 4 mg/L, mcr-1-positive Salmonella
  Time-kill result: Persisting inhibition of bacterial growth
[6]; varying concentrations, 24 h
  Killing characteristic (time-kill profiles): concentration-dependent killing
[7]; single dose of 2–16 mg/kg of colistin every 24 h
  Effect on broilers infected with mcr-1 positive Salmonella: not significant effect
[7]; ≤ 16 mg/kg of colistin, monotherapy
  3 × log10 kill effect in vivo: could not achieve
[8]; Imax model, AUC0-24h/MIC index
  E0: 0.51 log10CFU/g
  IC50 (AUC0-24h/MIC producing 50% of the maximum antibacterial effect): 122.19
  Imax: 4.55 log10CFU/g
[8]; intestinal infection model
  AUC0-24h/MIC for 1 log10 kill: 60.66
  AUC0-24h/MIC for 2 log10 kill: 150.15
  AUC0-24h/MIC for bacteriostatic action: 15.62
[9]; colistin alone
  MIC of colistin: 2 µg/mL
[9]; in the presence of 8 mg/L of IBG
  MIC of colistin in the presence of IBG: 0.25 µg/mL
[10]
  Time to colistin levels below the LOQ after dosing cessation: ≤ 4 h
[11]
  Dose of colistin required to reach 1 × log10 kill: 7.54 mg/kg
  Dose of colistin required to reach 3 × log10 kill: could not achieve
  Dose of colistin required to reach 4 × log10 kill: could not achieve
  Dose of colistin required to reach stasis: 1.94 mg/kg
Salmonella S226 (mcr-1); alone
  MBC: 4 µg/mL
  MIC: 2 µg/mL
Salmonella S226 (mcr-1)
  MIC (in combination): 0.25 µg/mL
Salmonella ATCC14028
  MBC: 1 µg/mL
  MIC: 0.5 µg/mL
  MIC (in combination): 0.125 µg/mL
[3]; alone
  MBC: 4 µg/mL
  MIC: 2 µg/mL
[3]
  MIC (in combination): 0.25 µg/mL
[4]; alone
  MBC: 4 µg/mL
  MIC: 2 µg/mL
[4]
  MIC (in combination): 0.5 µg/mL
Salmonella S235 (mcr-1); alone
  MBC: 4 µg/mL
  MIC: 2 µg/mL
Salmonella S235 (mcr-1)
  MIC (in combination): 0.25 µg/mL
